Paper PMC8927147, “Global profiling of regulatory elements in the histone benzoylation pathway” (Nature Communications, 2022)
Where a chain is given by its changes, count along the chain named. Peptide text beside a SMILES is read from it. * marks the point of attachment. Bz = O=C(c1ccccc1)*

Tests used:
Sas5YEATS = target: T1, Sas5YEATS (Saccharomyces cerevisiae, UniProt Q99314); assay: ITC binding of H3 peptides to Sas5YEATS
T1 construct: 6*His-Sumo (N, cleaved yes); made in house; host or cells: Escherichia coli Rosetta
T1 sequence (Q99314 2-139): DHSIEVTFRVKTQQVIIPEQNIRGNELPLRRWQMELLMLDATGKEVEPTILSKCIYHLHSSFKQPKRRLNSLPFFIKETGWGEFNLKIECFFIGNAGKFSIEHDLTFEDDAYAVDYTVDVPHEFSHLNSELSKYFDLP

Sth1BD = target: T2, Sth1BD (Saccharomyces cerevisiae, UniProt P32597); assay: ITC binding of H3 peptides to Sth1 bromodomain
T2 construct: Sth1BD (residues 1248-1359); 6*His-Sumo (N, cleaved yes); made in house; host or cells: Escherichia coli Rosetta
T2 sequence (P32597 1248-1359): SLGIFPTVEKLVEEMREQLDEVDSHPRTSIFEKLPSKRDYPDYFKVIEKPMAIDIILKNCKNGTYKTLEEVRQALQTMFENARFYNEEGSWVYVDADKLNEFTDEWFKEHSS
Experimental: (§1) ITC titrations were performed using a MicroCal ITC200 system (GE Healthcare, USA) at 20 °C. For ITC measurement, peptides and proteins were dialyzed into the same buffer (25 mM Tris-HCl, pH 8.0, 150 mM NaCl). […] For reader-related ITC experiments, peptides at 2.0 mM in the syringe were titrated into Taf14YEATS/Sas5YEATS/Sth1BD at 0.1–0.2 mM in the sample cell. Each titration consisted of 20 successive injections. The titration curves were processed using the Origin 7.0 software program (OriginLab) according to the one-binding-site fitting model. Each titration was repeated twice, and one representative plot was shown in the paper. The dissociation constants (Kd), enthalpy changes (ΔH), and fitting errors were derived from one representative ITC plot.

BY4742 cells = assay: Western blot of histone Kbz and Kac levels in yeast treated with sodium benzoate; assay type: cell-based, Saccharomyces cerevisiae; settings: BY4742 cells in YPD at log phase, sodium benzoate added for 6 h, histones extracted; pan anti-Kbz and anti-Kac
From the text: Anti-Kbz (PTM Biolabs Inc., PTM-762, 1:1000, Lot^# 1314381619I926), anti-Kac (Cell signal, 9441 S, 1:1000, Lot^# 14), anti-H3N (Active motif, 39763, 1:700, Lot^# 20418023), anti-H4 (Active motif, 61521, 1:3000, Lot^# 31416005), and anti-tubulin (Sigma, T6199, 1:3000, Lot^# 048M4751V) antibodies were used in this study. The HRP secondary antibody and the fluorescent secondary antibodies were used: Peroxidase AffiniPure Goat Anti-Mouse IgG (Jackson ImmunoResearch, 1:5000, 115-035-003), Peroxidase AffiniPure Goat Anti-Rabbit IgG (Jackson ImmunoResearch, 1:5000, 111-035-003), IRDye 800CW goat anti-rabbit IgG (LI-COR P/N 923-32211, 1:5000, Lot^# D00304-15) and IRDye 680RD goat anti-Mouse IgG (LI-COR P/N 926-68070, 1:10000, Lot^# D01014-04). The fluorescent western blots were detected on Odyssey CLx (LI-COR) and quantified by Image Studio (ver. 5.2.5).
Typically, 100 mg yeast cell pellets were harvested and suspended in 1 ml buffer A (1 M sorbitol, 50 mM Tris-HCl, pH 7.5, 5 mM MgCl2, 5 mM 2-mercaptoethanol) and centrifuged for 5 min at 900 g. Then, the pellet was resuspended in 1 ml buffer A with 60 μl zymolyase. […] The concentration of histones was measured by a BCA Protein Assay Kit (TIANGEN, PA115-01, China). The samples were analyzed by western blot or by mass spectrometry.

Gcn5-Ada2 = assay: DTNB acylation activity assay of Gcn5-Ada2; assay type: biochemical, Saccharomyces cerevisiae; settings: 250 μM H3 1-18 peptide, pH 7.8, 30 °C
Experimental: Kinetic measurements comparing rates of acetylation and benzoylation were performed using the 5,5′-dithiobis-(2-bitrobenzoic acid) (DTNB, D218200-1G, Sigma) assay. Reactions contained 2 μM Gcn5-Ada2, 250 μM H3 peptide amino acids 1-18 ([…]), 100 mM HEPES pH7.8, 50 mM NaCl and 500 μM acetyl-CoA or benzoyl-CoA. Each reaction was incubated for 5 min at 30 °C before adding acyl-CoA to start the reaction. The reaction was quenched at the indicated time points by adding two volumes of freshly prepared quenching buffer (3.2 M guanidine-HCl, 100 mM sodium phosphate pH 6.8). The samples were added to one volume of 4 mM DTNB dissolved in 100 mM sodium phosphate (pH 6.8) and transferred to a 384-well polystyrene clear-bottom plate (CORNING, 3680), and the absorbance at 412 nm was measured in a Bio-TEK plate reader. Absorbances were converted to concentrations using a standard curve generated by HSCOA standards. The acetylation reaction was quenched after 0.5, 1.0, 1.5, 2.0, and 2.5 min, and the benzoylation reaction was quenched after 1, 2, 3, and 4 h. All acylation rates were corrected by subtracting the rate of acyl-CoA consumption by Gcn5-Ada2 in the absence of peptide. The acetylation assays were performed in triplicate, but the benzoylation assay was not repeated due to the limitation of materials.

Sth1BD A1329C = target: T3, Sth1BD A1329C (Saccharomyces cerevisiae, UniProt P32597, A1329C); assay: ITC binding of H3K14bz peptide to Sth1BD A1329C mutant
T3 construct: Sth1BD (residues 1248-1359); 6*His-Sumo (N, cleaved yes); made in house; host or cells: Escherichia coli Rosetta
T3 sequence (P32597 1248-1359 A1329C): T2 sequence (P32597 1248-1359) with A82C
Experimental: as §1

CC(C)C[C@H](NC(=O)[C@H](CCC(N)=O)NC(=O)[C@@H](N)CCCCN)C(=O)N[C@@H](C)C(=O)N[C@@H](CO)C(=O)N[C@@H](CCCCN)C(=O)N[C@@H](C)C(=O)N[C@@H](C)C(=O)N[C@@H](CCCNC(=N)N)C(=O)N[C@@H](CCCCNC(=O)c1ccccc1)C(=O)N[C@@H](CO)C(=O)N[C@@H](C)C(=O)N1CCC[C@H]1C(=O)N[C@@H](CO)C(=O)N[C@H](C(=O)NCC(=O)NCC(=O)N[C@H](C(=O)N[C@@H](CCCCN)C(=O)N[C@@H](Cc1ccc(O)cc1)C(=O)O)C(C)C)[C@@H](C)O [H3K27bz] (H-KQLASKAARK(Bz)SAPSTGGVKY-OH)
Kd (Sas5YEATS): 92.6 ± 5.63 µM | Kd (Sth1BD): 386 µM

O=C([O-])c1ccccc1.[Na+] [sodium benzoate]
effect on histone Kbz and Kac signals (western blot) (BY4742 cells): significantly enhanced the Kbz and Kac signals on yeast histones in a dose-dependent manner

CC(=O)SCCNC(=O)CCNC(=O)[C@H](O)C(C)(C)COP(=O)(O)OP(=O)(O)OC[C@H]1O[C@@H](n2cnc3c(N)ncnc32)[C@H](O)[C@@H]1OP(=O)(O)O [acetyl-CoA]
acetylation rate (Gcn5-Ada2; 2 μM Gcn5-Ada2, 500 μM acetyl-CoA, n = 3): 10.35 µM/min

CC(C)(COP(=O)(O)OP(=O)(O)OC[C@H]1O[C@@H](n2cnc3c(N)ncnc32)[C@H](O)[C@@H]1OP(=O)(O)O)[C@@H](O)C(=O)NCCC(=O)NCCSC(=O)c1ccccc1 [benzoyl-CoA]
benzoylation rate (Gcn5-Ada2; 2 μM Gcn5-Ada2, 500 μM benzoyl-CoA, single experiment): 1.19 µM/h

CC(C)C[C@H](NC(=O)[C@H](CCC(N)=O)NC(=O)[C@H](CCCCN)NC(=O)[C@H](CCCNC(=N)N)NC(=O)[C@@H]1CCCN1C(=O)[C@H](C)NC(=O)[C@H](CCCCNC(=O)c1ccccc1)NC(=O)CNC(=O)CNC(=O)[C@@H](NC(=O)[C@H](CO)NC(=O)[C@H](CCCCN)NC(=O)[C@H](CCCNC(=N)N)NC(=O)[C@H](C)NC(=O)[C@@H](N)[C@@H](C)O)[C@@H](C)O)C(=O)N[C@@H](C)C(=O)N[C@@H](CO)C(=O)N[C@@H](Cc1ccc(O)cc1)C(=O)O [H3K14bz] (H-TARKSTGGK(Bz)APRKQLASY-OH)
Kd (Sth1BD): 88.5 ± 12.4 µM | Kd (Sth1BD A1329C): 187 ± 29.8 µM
